Values after ≈ are worked out from the molar mass of the structure shown. Like-named read-outs stand apart in the source and are kept apart here.
Columns and labels:
Assay type in all cases: cell-based
[1] = system: Acinetobacter Species; experiment: Broth microdilution (BMD); details: culture AC/2990
[2] = system: Acinetobacter Species; experiment: E-test; details: culture AC/2990
[3] = system: Klebsiella pneumonia culture; experiment: Optical third-derivative MIC method, culture in broth; details: for HR? at MIC (25%) / HR? at MIC (40%) / HR? at MIC (60%) / HR? at MIC (75%): ratio MIC T2/T1; for MIC: Klebsiella pneumoniae
Source text: The method of FIG. 1 starts at a time equal to zero, t0 (1). Preferably, said t0 is the moment a pure bacteria culture is finished being prepared. Alternatively, said t0 is the moment all wells contain both said bacteria culture and said antimicrobial drug. After the starting of the experiment each well is periodically illuminated with a light source and the intensity of the transmitted light is detected with a photodetector (2). Preferably, each well is illuminated and the intensity of the transmitted light is detected every hour (2). More preferably, each well is illuminated and the intensity of the transmitted light is detected every 5 to 15 min. After a predetermined time length, preferably after 4 hours, a first, a second and a third derivative of said measured intensity is calculated (3) in a first and a second time frame for each well. Preferably, said second time frame is the last measured time frame after the test has been running for said predetermined time length, and said first time frame is the time frame preceding the second time frame. More preferably, said first time frame is between two and three hours and said second time frame is between three and four hours. After the calculation of said derivatives, said first derivative in said second time frame of said reference well is compared to a growth speed threshold value (4). Preferably, said growth speed threshold value is 0.166 (4). If said first derivative in said second time frame of said reference well is larger than or equal to said growth speed threshold value said bacteria culture is classified as Type I (4). If said first derivative in said second time frame of said reference well is smaller than said growth speed threshold value said bacteria culture is classified as Type II (4). Subsequently, independent of the classification of the bacteria culture according to the two types, the method comprises the following steps which are performed for each well or for all wells except said reference well. Both said first and said second time frames are evaluated to see if there is an inflection point present in the second derivative in said first and/or said second time frame (5).
If said first and/or said second time frame comprise said inflection point than said third derivative in said first time frame is compared to said third derivative in said second time frame (6). If said third derivative in said first time frame is larger than said third derivative in said second time frame, then said first time frame and said second time frame are selected as a first and second time frame to be used in a minimal inhibitory concentration determination method (10). If said third derivative in said first time frame is not larger than said third derivative in said second time frame, then said well is illuminated again after a certain time period, preferably an hour, more preferably 5 to 15 min after said predetermined time length said, with a light source and the intensity of the transmitted light is detected with a photodetector forming a new time frame subsequent to said second time frame (7). A third derivative, and possibly also a first and/or a second derivative, is calculated in said new time frame (7). Further, in step (7) a new first time frame is put equal to said second time frame and a new second time frame to equal to said new time frame. Subsequently, said third derivative in said new first time frame is compared to said third derivative in said new second time frame (8). If said derivative in said new first time frame is larger than said third derivative in said new second time frame, then said new first time frame and said new second time frame are selected as a first and second time frame to be used in a minimal inhibitory concentration determination method (10). […]

MIC [1]: 0.25 µg/mL (≈ 0.835 µM) | MIC [2]: 0.25 µg/mL (≈ 0.835 µM) | MIC ([3]; 3 h, KP/38.3002, FIG. 5C, Table 5, 3 h-4 h, read-out: MIC (25%) T1): 16 µg/mL (≈ 53.4 µM) | MIC ([3]; 3 h, KP/38.3002, FIG. 5C, Table 5, 3 h-4 h, read-out: MIC (40%) T1): 0.25 µg/mL (≈ 0.835 µM) | MIC ([3]; 3 h, KP/38.3002, FIG. 5C, Table 5, 3 h-4 h, read-out: MIC (60%) T1): 0.25 µg/mL (≈ 0.835 µM) | MIC ([3]; 3 h, KP/38.3002, FIG. 5C, Table 5, 3 h-4 h, read-out: MIC (75%) T1): 0.25 µg/mL (≈ 0.835 µM) | MIC ([3]; 3 h, KP/153.4346, 3 h-4 h, read-out: MIC (25%) T1): > 256 µg/mL | MIC ([3]; 3 h, KP/153.4346, 3 h-4 h, read-out: MIC (40%) T1): > 256 µg/mL | MIC ([3]; 3 h, KP/153.4346, 3 h-4 h, read-out: MIC (60%) T1): 0.5 µg/mL (≈ 1.67 µM) | MIC ([3]; 3 h, KP/153.4346, 3 h-4 h, read-out: MIC (75%) T1): 0.5 µg/mL (≈ 1.67 µM) | MIC ([3]; 3 h, MP/072.3489, 3 h-4 h, read-out: MIC (25%) T1): 0.5 µg/mL (≈ 1.67 µM) | MIC ([3]; 3 h, MP/072.3489, 3 h-4 h, read-out: MIC (40%) T1): 0.5 µg/mL (≈ 1.67 µM) | MIC ([3]; 3 h, MP/072.3489, 3 h-4 h, read-out: MIC (60%) T1): 0.35 µg/mL (≈ 1.17 µM) | MIC ([3]; 3 h, MP/072.3489, 3 h-4 h, read-out: MIC (75%) T1): < 0.125 µg/mL | MIC ([3]; 4 h, KP/38.3002, FIG. 5C, Table 5, 4 h-5 h, read-out: MIC (25%) T2): 16 µg/mL (≈ 53.4 µM) | MIC ([3]; 4 h, KP/38.3002, FIG. 5C, Table 5, 4 h-5 h, read-out: MIC (40%) T2): 8 µg/mL (≈ 26.7 µM) | MIC ([3]; 4 h, KP/38.3002, FIG. 5C, Table 5, 4 h-5 h, read-out: MIC (60%) T2): 8 µg/mL (≈ 26.7 µM) | MIC ([3]; 4 h, KP/38.3002, FIG. 5C, Table 5, 4 h-5 h, read-out: MIC (75%) T2): 8 µg/mL (≈ 26.7 µM) | MIC ([3]; 4 h, KP/153.4346, 4 h-5 h, read-out: MIC (25%) T2): > 256 µg/mL | MIC ([3]; 4 h, KP/153.4346, 4 h-5 h, read-out: MIC (40%) T2): > 256 µg/mL | MIC ([3]; 4 h, KP/153.4346, 4 h-5 h, read-out: MIC (60%) T2): 16 µg/mL (≈ 53.4 µM) | MIC ([3]; 4 h, KP/153.4346, 4 h-5 h, read-out: MIC (75%) T2): 16 µg/mL (≈ 53.4 µM) | MIC ([3]; 4 h, MP/072.3489, 4 h-5 h, read-out: MIC (25%) T2): 16 µg/mL (≈ 53.4 µM) | MIC ([3]; 4 h, MP/072.3489, 4 h-5 h, read-out: MIC (40%) T2): 8 µg/mL (≈ 26.7 µM) | MIC ([3]; 4 h, MP/072.3489, 4 h-5 h, read-out: MIC (60%) T2): 8 µg/mL (≈ 26.7 µM) | MIC ([3]; 4 h, MP/072.3489, 4 h-5 h, read-out: MIC (75%) T2): 8 µg/mL (≈ 26.7 µM) | MIC ([3]; 5 h, KP/38.3002, FIG. 5H, both repetitions, read-out: MIC value determined by the method): 16 µg/mL (≈ 53.4 µM)
SMILES: C[C@@H](O)[C@H]1C(=O)N2C(C(=O)O)=C(SCCN=CN)C[C@H]12 [imipenem]
HR? at MIC (25%) ([3]; KP/38.3002, Table 5): no (If the ratio of the MIC value in the second time frame over the MIC value in the first time frame is lower than or equal to 4 then the ratio is labelled not to be heteroresistant) | HR? at MIC (40%) ([3]; KP/38.3002, Table 5): yes (If the ratio of the MIC value in the second time frame over the MIC value in the first time frame is higher than or equal to 8 then the ratio is labelled to be heteroresistant) | HR? at MIC (60%) ([3]; KP/38.3002, Table 5): yes (If the ratio of the MIC value in the second time frame over the MIC value in the first time frame is higher than or equal to 8 then the ratio is labelled to be heteroresistant) | HR? at MIC (75%) ([3]; KP/38.3002, Table 5): yes (If the ratio of the MIC value in the second time frame over the MIC value in the first time frame is higher than or equal to 8 then the ratio is labelled to be heteroresistant) | HR? at MIC (25%) ([3]; KP/38.3002, Table 10): yes (If the ratio of the MIC value in the second time frame over the MIC value in the first time frame is higher than or equal to 8 then the ratio is labelled to be heteroresistant) | HR? at MIC (40%) ([3]; KP/38.3002, Table 10): yes (If the ratio of the MIC value in the second time frame over the MIC value in the first time frame is higher than or equal to 8 then the ratio is labelled to be heteroresistant) | HR? at MIC (60%) ([3]; KP/38.3002, Table 10): yes (If the ratio of the MIC value in the second time frame over the MIC value in the first time frame is higher than or equal to 8 then the ratio is labelled to be heteroresistant) | HR? at MIC (75%) ([3]; KP/38.3002, Table 10): yes (If the ratio of the MIC value in the second time frame over the MIC value in the first time frame is higher than or equal to 8 then the ratio is labelled to be heteroresistant) | HR? at MIC (40%) ([3]; KP/38.3002, Table 11): yes (If the ratio of the MIC value in the second time frame over the MIC value in the first time frame is higher than or equal to 8 then the ratio is labelled to be heteroresistant) | HR? at MIC (60%) ([3]; KP/38.3002, Table 11): yes (If the ratio of the MIC value in the second time frame over the MIC value in the first time frame is higher than or equal to 8 then the ratio is labelled to be heteroresistant) | HR? at MIC (75%) ([3]; KP/38.3002, Table 11): yes (If the ratio of the MIC value in the second time frame over the MIC value in the first time frame is higher than or equal to 8 then the ratio is labelled to be heteroresistant) | HR? at MIC (25%) ([3]; KP/153.4346): no (If the ratio of the MIC value in the second time frame over the MIC value in the first time frame is lower than or equal to 4 then the ratio is labelled not to be heteroresistant) | HR? at MIC (40%) ([3]; KP/153.4346): no (If the ratio of the MIC value in the second time frame over the MIC value in the first time frame is lower than or equal to 4 then the ratio is labelled not to be heteroresistant) | HR? at MIC (60%) ([3]; KP/153.4346): yes (If the ratio of the MIC value in the second time frame over the MIC value in the first time frame is higher than or equal to 8 then the ratio is labelled to be heteroresistant) | HR? at MIC (75%) ([3]; KP/153.4346): yes (If the ratio of the MIC value in the second time frame over the MIC value in the first time frame is higher than or equal to 8 then the ratio is labelled to be heteroresistant)

Source: patent publication US20220389477A1, “METHOD FOR EVALUATING ANTIBIOTIC SUSCEPTIBILITY” (Vrije Universiteit Brussel, priority 2019, published 2022)
